Assay results published in paper PMC10648875 (Antimicrobial Agents and Chemotherapy, 2023).
Converted amounts (≈) assume the structure as drawn. Like-named read-outs stand apart in the source and are kept apart here.

Columns and labels:
PAM4874 producing SHV-12 = assay: MIC, engineered isogenic strain; format: cell-based, P. aeruginosa; conditions: SHV-12, class A; BLIs at fixed 4 µg/mL
PAM4917 producing NDM-7 = assay: MIC, engineered isogenic strain; format: cell-based, P. aeruginosa; conditions: NDM-7, class B; BLIs at fixed 4 µg/mL
PAM4887 producing IMP-1 = assay: MIC, engineered isogenic strain; format: cell-based, P. aeruginosa; conditions: IMP-1, class B; BLIs at fixed 4 µg/mL
[1] = system: Escherichia coli NCTC 13353 (ECM7514), CTX-M-15; assay: MIC, reference strain; format: cell-based; conditions: for MIC: Escherichia coli, NCTC13353, CTX-M-15, BLI at the fixed concentration in brackets, read-out: MIC; for MIC (number of observations): Table S1, repeated QC testing
Procedure: (§1) Other BL/BLI combinations were tested at their recommended BLI concentrations. MIC values for the partner antibiotics and BLIs alone were also determined (Table 2; Table S1). All investigational and marketed BLIs enhanced the potency of antibiotics according to their spectrum of inhibition. MIC values against CLSI-approved QC strains were within acceptable ranges for drugs and combinations tested (Table 3).
(§2) Isolates were tested for antimicrobial susceptibility using the broth microdilution methodology per CLSI M07 (2018) guidelines ([40]). JMI Laboratories produced frozen-form 96-well panels with cation-adjusted Mueller-Hinton broth as the testing medium. Current CLSI quality assurance practices were followed when performing the susceptibility tests. MIC values were validated by concurrently testing the following CLSI-recommended ([27]) QC reference strains: E. coli NCTC 13353 (CTX-M-15), Klebsiella pneumoniae ATCC BAA-2814 (KPC-3), Klebsiella pneumoniae ATCC BAA-1705 (KPC-2), and K. pneumoniae ATCC 700603 (SHV-18). The inoculum density during susceptibility testing was monitored by bacterial colony counts. Where applicable, QC ranges for tested reference strains were those approved or published by the CLSI ([27]). Meropenem was purchased from Carbosynth; ceftolozane was synthesized at Acme Bioscience, Palo Alto, CA, USA; all other antibiotics were from Sigma Aldrich. Xeruborbactam was synthesized at Qpex Biopharma, San Diego, CA, USA. Avibactam was purchased from eNovation, Chemicals LLC, Bridgewater, NJ, USA. Vaborbactam was synthesized at The Medicines Company, San Diego, CA. Relebactam, taniborbactam, and relebactam were synthesized at Acme Bioscience.

[2] = system: E. coli CDC 0069 (EC1106), NDM-1; assay: MIC, reference strain; format: cell-based; conditions: Escherichia coli, BLI at the fixed concentration in brackets, read-out: MIC
Procedure: as §1
as §2, with “([27]).” for “([27]). Meropenem was purchased from Carbosynth; ceftolozane was synthesized at Acme Bioscience, Palo Alto, CA, USA; all other antibiotics were from Sigma Aldrich. Xeruborbactam was synthesized at Qpex Biopharma, San Diego, CA, USA. Avibactam was purchased from eNovation, Chemicals LLC, Bridgewater, NJ, USA. Vaborbactam was synthesized at The Medicines Company, San Diego, CA. Relebactam, taniborbactam, and relebactam were synthesized at Acme Bioscience.”

[3] = system: K. pneumoniae ATCC BAA-1705 (KPM1123), KPC-2; assay: MIC, reference strain; format: cell-based; conditions: for MIC: Klebsiella pneumoniae, ATCCBAA1705, KPC-2, BLI at the fixed concentration in brackets, read-out: MIC; for MIC (number of observations): Table S1, repeated QC testing
Procedure: as §1
as §2, with “([27]).” for “([27]). Meropenem was purchased from Carbosynth; ceftolozane was synthesized at Acme Bioscience, Palo Alto, CA, USA; all other antibiotics were from Sigma Aldrich. Xeruborbactam was synthesized at Qpex Biopharma, San Diego, CA, USA. Avibactam was purchased from eNovation, Chemicals LLC, Bridgewater, NJ, USA. Vaborbactam was synthesized at The Medicines Company, San Diego, CA. Relebactam, taniborbactam, and relebactam were synthesized at Acme Bioscience.”

[4] = system: K. pneumoniae ATCC BAA-2814 (KP1074), KPC-3; assay: MIC, reference strain; format: cell-based; conditions: for MIC: Klebsiella pneumoniae, ATCCBAA2814, KPC-3, BLI at the fixed concentration in brackets, read-out: MIC; for MIC (number of observations): Table S1, repeated QC testing
Procedure: as §1
as §2, with “([27]).” for “([27]). Meropenem was purchased from Carbosynth; ceftolozane was synthesized at Acme Bioscience, Palo Alto, CA, USA; all other antibiotics were from Sigma Aldrich. Xeruborbactam was synthesized at Qpex Biopharma, San Diego, CA, USA. Avibactam was purchased from eNovation, Chemicals LLC, Bridgewater, NJ, USA. Vaborbactam was synthesized at The Medicines Company, San Diego, CA. Relebactam, taniborbactam, and relebactam were synthesized at Acme Bioscience.”

[5] = system: K. pneumoniae CDC 0135 (KP1291), VIM-1; assay: MIC, reference strain; format: cell-based; conditions: Klebsiella pneumoniae, BLI at the fixed concentration in brackets, read-out: MIC
Procedure: as §1
as §2, with “([27]).” for “([27]). Meropenem was purchased from Carbosynth; ceftolozane was synthesized at Acme Bioscience, Palo Alto, CA, USA; all other antibiotics were from Sigma Aldrich. Xeruborbactam was synthesized at Qpex Biopharma, San Diego, CA, USA. Avibactam was purchased from eNovation, Chemicals LLC, Bridgewater, NJ, USA. Vaborbactam was synthesized at The Medicines Company, San Diego, CA. Relebactam, taniborbactam, and relebactam were synthesized at Acme Bioscience.”

[6] = system: Klebsiella pneumoniae ATCC 700603 (KPM2881), SHV-18; assay: MIC, reference strain; format: cell-based; conditions: for MIC: Klebsiella pneumoniae, ATCC700603, SHV-18, BLI at the fixed concentration in brackets, read-out: MIC; for MIC (number of observations): Table S1, repeated QC testing
Procedure: as §1
as §2, with “([27]).” for “([27]). Meropenem was purchased from Carbosynth; ceftolozane was synthesized at Acme Bioscience, Palo Alto, CA, USA; all other antibiotics were from Sigma Aldrich. Xeruborbactam was synthesized at Qpex Biopharma, San Diego, CA, USA. Avibactam was purchased from eNovation, Chemicals LLC, Bridgewater, NJ, USA. Vaborbactam was synthesized at The Medicines Company, San Diego, CA. Relebactam, taniborbactam, and relebactam were synthesized at Acme Bioscience.”

[7] = system: P. aeruginosa BAA-3197 (PA5257), KPC-2; assay: MIC, reference strain; format: cell-based; conditions: for MIC: Pseudomonas aeruginosa, BAA3197, KPC-2, BLI at the fixed concentration in brackets, read-out: MIC; for MIC (number of observations): Table S1, repeated QC testing
[8] = system: surveillance isolates of carbapenem-resistant strains of Enterobacterales; assay: MIC testing of SENTRY surveillance CRE isolates (Table 4, Table S4); format: cell-based; conditions: for % Inhibited: at ≤8 µg/mL β-lactam (IMP/REL ≤1/4, MEM/VAB ≤4/8 (≤8/8) µg/mL), footnote b
[9] = system: carbapenem-resistant Enterobacterales (subset of 507 isolates); assay: organism not typed; format: cell-based; conditions: xeruborbactam and vaborbactam fixed 8 mg/L, all other BLIs 4 mg/L; for MIC50: read-out: MIC50; for MIC90: read-out: MIC90
VIM-1 (lysate of KP1015) = target: T1, VIM-1 (lysate of KP1015) (Pseudomonas aeruginosa, UniProt A0A0F7KYQ8); assay: IC50 of β-lactamase inhibition (imipenem cleavage) in cell lysates; format: biochemical, K. pneumoniae
T1 construct: endogenous in cells; host or cells: K. pneumoniae KP1015

With CO/N=C(\C(=O)N[C@@H]1C(=O)N2C(C(=O)[O-])=C(C[N+]3(C)CCCC3)CS[C@H]12)c1csc(N)n1 [FEP, cefepime] the MIC (PAM4874 producing SHV-12) was 64 µg/mL (≈ 133 µM), the MIC (PAM4917 producing NDM-7) was > 64 µg/mL and the MIC (PAM4887 producing IMP-1) was 64 µg/mL (≈ 133 µM). The MIC [1] was > 64 µg/mL, the “MIC (number of observations)” value [1] was 32 (1)-64(5)->128 (10) µg/ml and the MIC [2] was 64 µg/mL. For the same compound, the MIC [3] was 32 µg/mL, the “MIC (number of observations)” value [3] was 32 (40)->32(6) µg/ml and the MIC [4] was > 64 µg/mL. For the same compound, the “MIC (number of observations)” value [4] was > 32 µg/mL, the MIC [5] was > 64 µg/mL and the MIC [6] was 1 µg/mL. The “MIC (number of observations)” value [6] was 0.5(1)-1(8)-2(1)-4(1) µg/ml, the MIC [7] was > 64 µg/mL and the “MIC (number of observations)” value [7] was > 128 µg/mL. For the same compound, the MIC50 [8] was > 32 µg/mL, the MIC90 [8] was > 32 µg/mL and the MIC50 ([8]; All surveillance CRE, read-out: MIC50) was > 32 µg/mL. The MIC90 ([8]; All surveillance CRE, read-out: MIC90) was > 32 µg/mL, the “% Inhibited” value ([8]; KPC subset) was 11.70% and the MIC50 ([8]; KPC subset, read-out: MIC50) was > 32 µg/mL. The MIC90 ([8]; KPC subset, read-out: MIC90) was > 32 µg/mL, the “% Inhibited” value ([8]; MBL subset) was 0.00% and the MIC50 ([8]; MBL subset, read-out: MIC50) was > 32 µg/mL. For the same compound, the MIC90 ([8]; MBL subset, read-out: MIC90) was > 32 µg/mL, the “% Inhibited” value ([8]; NDM subset) was 0.00% and the MIC50 ([8]; NDM subset, read-out: MIC50) was > 32 µg/mL. For the same compound, the MIC90 ([8]; NDM subset, read-out: MIC90) was > 32 µg/mL, the “% Inhibited” value ([8]; No MBL subset) was 15.50% and the MIC50 ([8]; No MBL subset, read-out: MIC50) was > 32 µg/mL. The MIC90 ([8]; No MBL subset, read-out: MIC90) was > 32 µg/mL, the “% Inhibited” value ([8]; Non-CP CRE subset) was 15.20% and the MIC50 ([8]; Non-CP CRE subset, read-out: MIC50) was > 32 µg/mL. The MIC90 ([8]; Non-CP CRE subset, read-out: MIC90) was > 32 µg/mL, the “% Inhibited” value ([8]; OXA-48 subset) was 21.50% and the MIC50 ([8]; OXA-48 subset, read-out: MIC50) was > 32 µg/mL. The MIC90 ([8]; OXA-48 subset, read-out: MIC90) was > 32 µg/mL, the “% Inhibited” value ([8]; VIM subset) was 0.00% and the MIC50 ([8]; VIM subset, read-out: MIC50) was 32 µg/mL (≈ 66.6 µM). For the same compound, the MIC90 ([8]; VIM subset, read-out: MIC90) was > 32 µg/mL, the MIC50 ([9]; CRE (N = 507)) was > 64 µg/mL and the MIC90 ([9]; CRE (N = 507)) was > 64 µg/mL. The MIC50 ([9]; KPC (N = 193)) was > 64 µg/mL, the MIC90 ([9]; KPC (N = 193)) was > 64 µg/mL and the MIC50 ([9]; MBL (N = 168)) was > 64 µg/mL. The MIC90 ([9]; MBL (N = 168)) was > 64 µg/mL, the MIC50 ([9]; Non-CP CRE (N = 50)) was > 64 µg/mL and the MIC90 ([9]; Non-CP CRE (N = 50)) was > 64 µg/mL. For the same compound, the MIC50 ([9]; OXA-48-like (N = 96)) was > 64 µg/mL and the MIC90 ([9]; OXA-48-like (N = 96)) was > 64 µg/mL.
With O=C(O)c1c(F)ccc2c1OB(O)[C@@H]1C[C@H]21 [Xeruborbactam, xeruborbactam] the MIC [1] was 8 µg/mL, the “MIC (number of observations)” value [1] was 4 (1) - 8 (8) - 16 (2) µg/ml and the MIC [2] was 16 µg/mL. The MIC [3] was 16 µg/mL, the “MIC (number of observations)” value [3] was 8 (2)-16 (44)-32 (2) µg/ml and the MIC [4] was 32 µg/mL. The “MIC (number of observations)” value [4] was 16 (20)-32 (28) µg/ml, the MIC [5] was 16 µg/mL and the MIC [6] was 16 µg/mL. For the same compound, the “MIC (number of observations)” value [6] was 8 (7)-16 (4) µg/ml, the MIC [7] was > 64 µg/mL and the “MIC (number of observations)” value [7] was 64 (1)- >128 (13) µg/ml. For the same compound, the “% of isolates with xeruborbactam MIC of ≤8 µg/mL” value [8] was 13.3%, the MIC50 ([8]; read-out: MIC50 for xeruborbactam alone, range over all the subsets of isolates) was 16 to 32 µg/mL and the “% of isolates without significant growth inhibition at 4 µg/mL” value ([8]; xeruborbactam alone at 4 µg/mL) was > 99%. For the same compound, the IC50 (VIM-1 (lysate of KP1015)) was 250 ± 20 nM.
